The text below walks through data of PMC10047800, “Evaluation of Some Benzo[g]Quinazoline Derivatives as Antiviral Agents against Human Rotavirus Wa Strain: Biological Screening and Docking Study” (Current Issues in Molecular Biology, 2023).

Structures are written as SMILES.

What all share (type): cell-based
For data set [1], the system named is BGM cells. The data set is described as follows: Cytotoxicity test (cell morphology, trypan blue viability): non-toxic dose on BGM cells. The note with it: BGM cell line, 72 h. On the procedure: (§1) It was carried out in accordance with the methods that were reported. In 1 mL of ethyl alcohol, 100 mg of sample was dissolved. A sample of 24 μL of 100× antibiotic–antimycotic mixture was added to 1 mL of sample to decontaminate it. Then, bi-fold dilutions were done to 100 μL of the original dissolved sample, and 100 μL of each dilution was inoculated in Hep-2, BGM, MA104, and CaCo-2 cell lines (obtained from the Holding Company for Biological Products & Vaccines VACSERA, Giza, Egypt) previously cultured in 96 multi well plates (Greiner-Bio one, Frickenhausen, Germany) to estimate the sample’s non-toxic dose. Inverted light microscope cell morphology and trypan blue dye exclusion cell viability tests were used for cytotoxicity assay.
(§2) The Hep-2, BGM, MA104, and CaCo-2 cell cultures were each seeded at a concentration of 2 × 10^5 cells/mL and grown individually in 96-well tissue culture plates (Greiner-Bio one, Frickenhausen, Germany). After an incubation period of 24 h at 37 °C in an atmosphere containing 5% (v/v) CO2, cell monolayers were confluent. At this point, the media was withdrawn from each well and replaced with 100 μL of bi-fold dilutions of the sample examined that were prepared in Dulbecco’s Modified Eagle Medium (DMEM) (GIBCO BRL, Darmstadt, Germany). For the purpose of cell controls, 100 μL of DMEM containing no samples was added. All the cultures were kept in an atmosphere with 5% (v/v) CO2 that was humidified and incubated at 37 °C for a total of 72 h. […] Morphology shifts were observed and scored.
(§3) Trypan blue dye was excluded from the experiment. […]. In 12-well tissue culture plates, Hep-2, BGM, MA104, and CaCo-2 cells (2 × 10^5 cells/mL) were cultivated (Greiner-Bio one, Frickenhausen, Germany). Following an incubation period of 24 h, 100 μL of tested sample dilutions, also known as bi-fold dilutions, were added to each well, and the results were examined in the same manner as described previously. After 72 h, the medium was removed, the cells were trypsinized, and an equal amount of an aqueous solution containing 0.4% (w/v) trypan blue dye was added. Counting the number of viable cells required phase contrast microscopes.

For data set [2], the system named is MA104 cells. The data set is described as follows: Cytotoxicity test (cell morphology, trypan blue viability): non-toxic dose on MA104 cells. Particulars: MA104 cell line, 72 h. As for the experimental part:
as §1, §2, §3

Data set [3] has as its system human rotavirus Wa strain. Nature of the data set: Rotavirus titers by plaque assay after treatment with non-toxic doses. Particulars: virus 1 × 10^7 PFU/mL, Mean ± SD of three results. On the procedure: The Rotavirus Wa strain, at a concentration of 1 × 10^7 PFU/mL, was mixed with non-toxic dilutions in a volume of 100 μL. At a temperature of 37 °C and 10 μg/mL of trypsin, the rotavirus stocks became infectious after 30 min. The mixture was incubated for half an hour at 37 °C. The Hep 2, BGM, and MA104 cell lines were seeded into the wells of 12 multi-well plates and then injected with 100 μL (10-fold) dilutions of the treated and untreated rotavirus Wa strain after an hour of adsorption at 37 °C in an atmosphere containing 5% CO2-water vapor without shaking. The plates were bounced at regular intervals to prevent the cells from drying out. Following the adsorption step, 1 mL of a 2× media consisting of Dulbecco’s Modified Eagle Medium, Gibco-BRL (DMEM), and 1% agarose were added to each well. The mixture of medium and agarose was given an additional 0.5 μg/mL of trypsin so that it could test for the rotavirus Wa strain. The plates were kept in an incubator with an environment containing 5% CO2 and water vapor at 37 °C. After being fixed with formalin and stained with crystal violet at a concentration of 0.4%, the plaques were counted. After that, the PFU/mL viral titers were determined.

The test system of data set [4] is Hep-2 cells. The data set is described as follows: Cytotoxicity test (cell morphology, trypan blue viability): non-toxic dose on Hep-2 cells. Particulars: Hep-2 cell line, 72 h. As for the experimental part: as §1, §2, §3

`COc1cccc(CSc2nc3cc4ccccc4cc3c(=O)n2Cc2ccccc2)c1` [Compound 6]: the “Non-Toxic Doses” value in data set [1], in data set [2] and in data set [4] was 65 µg/mL throughout. Besides, the “% Reduction of Rotavirus Wa strain” value in data set [3] was 20% ± 4%.
With `Cn1c(NN)nc2cc3ccccc3cc2c1=O` [Compound 14], the “Non-Toxic Doses” value is listed as 55 µg/mL in data set [1], 60 µg/mL in data set [2] and 60 µg/mL in data set [4].
Turning to `NNc1nc2cc3ccccc3cc2c(=O)n1Cc1ccccc1` [Compound 16], the “Non-Toxic Doses” value worked out at 60 µg/mL in data set [1], 60 µg/mL in data set [2] and 65 µg/mL in data set [4].
In the case of `O=c1c2cc3ccccc3cc2[nH]c(=S)n1Cc1ccccc1` [Compound 3], the “Non-Toxic Doses” value is reported as 60 µg/mL in data set [1], 75 µg/mL in data set [2] and 70 µg/mL in data set [4].
Consider `O=C1c2ccccc2C(=O)N1CCCSc1nc2cc3ccccc3cc2c(=O)n1Cc1ccccc1` [Compound 13], for which the figures for the “Non-Toxic Doses” value in data set [1], in data set [2] and in data set [4] were 40 µg/mL, 50 µg/mL and 45 µg/mL, respectively. Besides, the “% Reduction of Rotavirus Wa strain” value in data set [3] is 20% ± 3%.
As for `CCn1c(SCc2cccc(OC)c2)nc2cc3ccccc3cc2c1=O` [Compound 5], the “Non-Toxic Doses” value is listed as 55 µg/mL in data set [1], 55 µg/mL in data set [2] and 60 µg/mL in data set [4].
Turning to `CCn1c(=S)[nH]c2cc3ccccc3cc2c1=O` [Compound 2], the “Non-Toxic Doses” value in data set [1], in data set [2] and in data set [4] was 60 µg/mL each time.
Take `N#Cc1ccc(CSc2nc3cc4ccccc4cc3c(=O)n2Cc2ccccc2)cc1` [Compound 11]: the “Non-Toxic Doses” value in data set [1], in data set [2] and in data set [4] was 65 µg/mL each time.
Consider `O=c1c2cc3ccccc3cc2nc(SCc2ccc(Cl)cc2)n1Cc1ccccc1` [Compound 8], for which the “Non-Toxic Doses” value in data set [1], in data set [2] and in data set [4] was 50 µg/mL in each case.
Regarding `COc1cccc(CSc2nc3cc4ccccc4cc3c(=O)n2C)c1` [Compound 4], the “Non-Toxic Doses” value in data set [1] was determined as 50 µg/mL; in data set [2] it was 55 µg/mL; in data set [4], 55 µg/mL.
For the compound `Cn1c(SCc2cccc(C#N)c2)nc2cc3ccccc3cc2c1=O` [Compound 9], the “Non-Toxic Doses” value in data set [1] is reported as 65 µg/mL; in data set [2], 75 µg/mL; in data set [4] it was 70 µg/mL.
Turning to `CCn1c(SCCCN2C(=O)c3ccccc3C2=O)nc2cc3ccccc3cc2c1=O` [Compound 12], the “Non-Toxic Doses” value in data set [1] is reported as 25 µg/mL; in data set [2] it was 30 µg/mL; in data set [4], 30 µg/mL.
In the case of `CCn1c(SCc2ccc(Cl)cc2)nc2cc3ccccc3cc2c1=O` [Compound 7], the “Non-Toxic Doses” value in data set [1], in data set [2] and in data set [4] was 60 µg/mL each time.
With `CCn1c(SCc2ccc(C#N)cc2)nc2cc3ccccc3cc2c1=O` [Compound 10], the results for the “Non-Toxic Doses” value in data set [1], in data set [2] and in data set [4] were 50 µg/mL, 55 µg/mL and 50 µg/mL, respectively.
Consider `CCn1c(NN)nc2cc3ccccc3cc2c1=O` [Compound 15], for which the “Non-Toxic Doses” value in data set [1], in data set [2] and in data set [4] was 55 µg/mL throughout.
With `Cn1c(=S)[nH]c2cc3ccccc3cc2c1=O` [Compound 1], the “Non-Toxic Doses” value in data set [1] is recorded as 60 µg/mL; in data set [2], 65 µg/mL; in data set [4] it was 65 µg/mL.
